Experimental data as given in patent publication US12516036B2, “Crystal form of 3-(4-(benzyloxy)phenyl)hex-4-inoic acid derivative” (HYUNDAI PHARM CO., LTD., priority 2019, dated 2026).

Key:
[1] = Storage stability test (formulated powder, 60° C. and 75% RH); format: physicochemical; details: for Purity (%) Initial: powder mix with microcrystalline cellulose and light anhydrous silicic acid; for Purity (%) Week 2 / Purity (%) Week 4 / Purity (%) Week 8 / Purity change (%) Week 8 − Initial: powder mix; for Purity (%) Week 2: 2 weeks; for Purity (%) Week 4: 4 weeks; for Purity (%) Week 8: 8 weeks; for Purity change (%) Week 8 − Initial: 8 weeks vs initial
Experimental: In order to confirm stability when the crystal form I, crystal form II, and amorphous form of a compound of Chemical Formula 1 were formulated, powder obtained by mixing 50 mg of each sample, 149 mg of microcrystalline cellulose, and 1 mg of light anhydrous silicic acid was input into a brown glass bottle and allowed to stand in a stability chamber set under conditions of 60° C. and 75% RH, and the sample was taken out after 2 weeks, 4 weeks, 8 weeks had elapsed to confirm the purity of the compound of Chemical Formula 1 over time.
When the storage period for each storage condition was reached, 35 mg of the compound of Chemical Formula 1 was taken from each sample, input into a 50 mL volumetric flask, dissolved with an appropriate amount of diluent, and marked. The resulting solution was input into a glass centrifuge tube and centrifuged at 3,000 rpm and 5° C. for 10 minutes. The sample was taken using a glass pipette and input into a HPLC vial for analysis.

[2] = Thermal stability test (thermal stress, 80° C.); format: physicochemical; details: for Change in properties (appearance): 80° C.; for Purity (%) Initial: before thermal stress test; for Purity (%) Initial / Purity (%) Month 1 / Purity (%) Day 6 / Purity (%) Day 14: HPLC; for Purity change (%) Month 1 − Initial / Purity (%) Month 1 / Purity (%) Day 6 / Purity (%) Day 14: sealed vial, oven 80° C.; for Purity change (%) Month 1 − Initial: 1 month vs initial; for Purity (%) Month 1: 1 month; for Purity (%) Day 6: 6 days; for Purity (%) Day 14: 14 days; for Change in XRD pattern before and after thermal stress: 80° C. thermal stress (FIG. 11-14)
Experimental: The crystal form I, crystal form II, and amorphous form samples of a compound of Chemical Formula 1 were subjected to a thermal stability test.
0.3 g of each sample was input into a 20 mL vial (prepared 0.3 g*3 ea for each sample), and the vial was sealed by closing a lid and then allowed to stand in an oven set at 80° C. Afterward, the sample was taken out after 6 days, 14 days, and 1 month had elapsed, and the changes in properties, purity, and XRD pattern before and after thermal stress conditions were examined. • Purity was measured under the following conditions using a HPLC. • Column: YMC-Pack Pro C18, 5 um, 4.6×150 mm • Column temperature: 35° C. • Flow rate: 1.0 mL/min • Injection volume: 5 uL • Wavelength: 220 nm • Mobile Phase A: 0.1% TFA in H2O/MeOH=60/40 • Mobile Phase B: MeOH/0.1% TFA in ACN=60/40 • Gradient:
• Diluent: H2O/ACN=80/20 • Run time: 40 min • Sample concentration: 0.7 mg/mL

[3] = Compressibility test (bulk/tapped density, Carr index, Hausner ratio); format: physicochemical; details: for Carr Index (CI): CI=100×(1−BD/TD); for Hausner ratio (Hr): Hr=TD/BD; for Description of flow: criteria of Table 5; for Bulk density BD / Tapped density TD: unit assumed
Text: Since a drug that causes a lot of static electricity has difficulty in handling and compressing to form a tablet when formulated, it is very difficult to implement a preparation with a uniform drug content. Accordingly, in relation to the static electricity-inducing capability and flowability of the three types of crystal form I, crystal form II, and the amorphous form, the compressibility of each preparation containing these drugs was examined.
The Carr index is used as an indication of the compressibility of a preparation and is related to convenience in formulation, that is, static electricity-inducing capability, flowability, and uniformity of drug content.
The Carr Index (CI) is calculated as follows. CI=100×(1−BD/TD) • BD: bulk density, TD: tapped density
The Hausner ratio (Hr) is also an indication related to the flowability of a powder or granular drug.
The Hausner ratio (Hr) is calculated as follows. Hr=TD/BD
As a result of the test, the bulk density and tapped density of the crystal form I, the crystal form II, and the amorphous form were obtained and summarized in Table 4, through which the Carr Index (CI) and Hausner ratio (Hr) were obtained, and based on the criteria in Table 5, the evaluation results for the Carr Index (CI), Hausner ratio (Hr), and flowability are shown in Table 6.

[4] = molecular target: free fatty acid receptor 1 (FFAR1)/a G-protein coupled receptor (GPR40) (Homo sapiens, UniProt O14842); details: cited from earlier work
free fatty acid receptor 1 (FFAR1)/a G-protein coupled receptor (GPR40), sequence (O14842 whole entry, species assumed): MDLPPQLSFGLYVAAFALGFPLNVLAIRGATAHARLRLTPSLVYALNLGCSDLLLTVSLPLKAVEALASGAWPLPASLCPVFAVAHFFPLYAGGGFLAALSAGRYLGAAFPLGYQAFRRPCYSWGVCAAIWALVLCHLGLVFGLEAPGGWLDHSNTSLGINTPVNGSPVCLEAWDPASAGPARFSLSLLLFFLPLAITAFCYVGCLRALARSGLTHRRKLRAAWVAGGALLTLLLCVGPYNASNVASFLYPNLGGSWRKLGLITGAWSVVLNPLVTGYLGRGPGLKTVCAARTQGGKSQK

[5] = in vivo; cited from earlier work
[6] = after 1 month of the thermal stress test (FIG. 10)

| Structure (SMILES) | Purity (%) Initial [1] [%] | Purity (%) Week 2 ([1]; 60° C. and 75% RH) [%] | Purity (%) Week 4 ([1]; 60° C. and 75% RH) [%] | Purity (%) Week 8 ([1]; 60° C. and 75% RH) [%] | Purity change (%) Week 8 − Initial ([1]; 60° C. and 75% RH) [%] | Purity (%) Initial [2] [%] | Purity change (%) Month 1 − Initial [2] [%] | Purity (%) Month 1 [2] [%] | Purity (%) Day 6 [2] [%] | Purity (%) Day 14 [2] [%] | Carr Index (CI) [3] | Hausner ratio (Hr) [3] | Description of flow [3] | Bulk density BD [3] [g/mL] | Tapped density TD [3] [g/mL] | Change in XRD pattern before and after thermal stress [2] | Change in properties (appearance) [2, 6] | other results |
| --- | --- | --- | --- | --- | --- | --- | --- | --- | --- | --- | --- | --- | --- | --- | --- | --- | --- | --- |
| CC#C[C@@H](CC(=O)O)c1ccc(OCc2cccc(C3=CCC4(CC3)OCCO4)c2)cc1 [Amorphous form, (3S)-3-(4-(3-(1,4-dioxaspiro[4,5]dec-7-en-8-yl)benzyloxy)phenyl)hex-4-inoic acid] | 100.6 | 91.5 | 86.8 | 77.5 | −23.1 | 99.33 | −11.69 | 87.64 | 96.76 | 94.35 | 18.48 | 1.23 | Fair (16-20) | 0.353 | 0.433 | – | – | Change in properties (appearance) ([2]; after 6 days of the thermal stress test (FIG. 10)): turned yellow |
| CC#C[C@@H](CC(=O)O)c1ccc(OCc2cccc(C3=CCC4(CC3)OCCO4)c2)cc1 [compound of Chemical Formula 1, (3S)-3-(4-(3-(1,4-dioxaspiro[4,5]dec-7-en-8-yl)benzyloxy)phenyl)hex-4-inoic acid] | – | – | – | – | – | – | – | – | – | – | – | – | – | – | – | – | – | Activation of FFAR1/GPR40 (increase of intracellular calcium concentration) [4]: activates; Blood sugar lowering effect [5]: excellent blood sugar lowering effect |
| CC#C[C@@H](CC(=O)O)c1ccc(OCc2cccc(C3=CCC4(CC3)OCCO4)c2)cc1 [Crystal form I, (3S)-3-(4-(3-(1,4-dioxaspiro[4,5]dec-7-en-8-yl)benzyloxy)phenyl)hex-4-inoic acid] | 100.2 | 101.8 | 100.9 | 99.9 | −0.3 | 99.40 | −3.65 | 95.75 | 98.67 | 97.91 | 13.41 | 1.15 | Good (11-15) | 0.381 | 0.44 | no significant change in XRD pattern peak | no significant change in properties | Storage stability ranking ([1]; 60° C. and 75% RH, compared among crystal form I, crystal form II, amorphous form): stablest |
| CC#C[C@@H](CC(=O)O)c1ccc(OCc2cccc(C3=CCC4(CC3)OCCO4)c2)cc1 [Crystal form II, (3S)-3-(4-(3-(1,4-dioxaspiro[4,5]dec-7-en-8-yl)benzyloxy)phenyl)hex-4-inoic acid] | 99.1 | 96.2 | 92.3 | 88 | −11.1 | 99.53 | −3.75 | 95.78 | 98.73 | 97.80 | 54.05 | 2.18 | Very, very poor | 0.136 | 0.296 | shifting of specific peaks | no significant change in properties | Compressibility test results (in words) [3]: very poor; Static electricity-inducing capability ([3]; filling a die for tableting): excessively caused static electricity |
